In patent publication US20210163593A1, “TREATMENT OF MONOGENIC DISEASES WITH AN ANTI-CD45RC ANTIBODY” (INSERM (INSTITUT NATIONAL DE LA SANTÉ ET DE LA RECHERCHE …, priority 2017, published 2021):

How the values were obtained:
Assay type in all cases: in vivo, rat
[1] = Weight / animal growth of Dmd^mdx rats during treatment; settings: ip from week 2 up to week 12 of age
Protocol: FIG. 6 is a set of two graphs showing the weight of wild-type or Dmd^mdx rats during treatment using prednisolone or anti-CD45RC monoclonal antibody. Control littermate wild-type (WT) or Dmd^mdx (KO) rats received intraperitoneal injections of prednisolone or anti-CD45RC monoclonal antibody (OX22) from week 2 up to week 12 of age and weight was recorded at the indicated time points.
(§1) Wild-type (WT) or Dmd^mdx (KO) rats received intraperitoneal injections of a mouse anti-rat CD45RC monoclonal antibody (clone OX22, 2 mg/kg, every 3.5 days) from week 2 of age up to week 12.
(§2) Prednisolone was administered by intraperitoneal injections (0.5 mg/kg, 5 days a week) from week 2 of age up to week 12.

[2] = test system: T CD8^+ CD45RC^high cells; assay: Flow cytometry of T cell subsets in muscle and spleen of WT and Dmd^mdx rats after treatment
Protocol: Muscles of both hind limbs from WT or Dmd^mdx rats were excised and weighed. Muscles were minced and placed in gentle MACS C tubes with collagenase D in the presence of FCS 2%, 1 mM EDTA. Two runs of 30 minutes each in a gentle MACS dissociator were performed with new collagenase added between each run. Cells were suspended in 30 mL of PBS FCS 2%, 1 mM EDTA, were then applied to 15 mL of Hystopaque and centrifuged at 1000 g for 30 minutes without a break. Mononuclear cells were collected from the Hystopaque and PBS interface, washed and suspended in PBS FCS 2%, 1 mM EDTA.
Spleen was harvested, perfused with PBS and digested by collagenase D for 15 minutes at 37° C. Cells were suspended in PBS FCS 2%, 1 mM EDTA and mononuclear cells were recovered as explained above.
Mononuclear cells were stained with antibodies against the following antigens: CD45 (clone OX-1), T-cell receptor (TCR; clone R7/3), CD45RC (clone OX22), CD8 (clone OX8) and CD4 (W3/25), as well as with viability dyes eFluor506 or eFluor450, all from eBiosciences. Analysis was performed on a BD FACS Verse with FACSuite Software version 1.0.6. Post-acquisition analysis was performed with FlowJo software.
as §1, §2

[3] = test system: Dmd^mdx rats; assay: Grip test of forelimb muscle strength in Dmd^mdx rats; settings: ip from week 2 of age, tested at 12 weeks
Protocol: as §1, §2
At week 12 of age treated rats were analyzed for muscle strength using a grip test.
Rats were placed with their forepaws on a grid and were gently pulled backward until they released their grip. A grip meter (Bio-GT3, BIOSEB, France), attached to a force transducer, measured the peak force generated.
To examine whether muscle function was improved by the anti-CD45RC monoclonal antibody treatment, muscle strength was analyzed by a grip test of forelimbs in WT and Dmd^mdx rats at 12 weeks of age after initiation of treatment at 2 weeks of age.

animal growth (weight) [1]: severe reduction
SMILES: C[C@]12C=CC(=O)C=C1CC[C@@H]1[C@@H]2[C@@H](O)C[C@@]2(C)[C@H]1CC[C@]2(O)C(=O)CO [prednisolone]
T CD8^+ CD45RC^high cells ([2]; ip from week 2 of age, analyzed at 12 weeks, muscle of Dmd^mdx rats and spleen of WT and Dmd^mdx rats): specific decrease
CD4^+CD45RC^high cells ([2]; muscle and spleen of Dmd^mdx rats and spleen of WT rats, data not shown): numerically reduced
CD8^+CD45RC^int/neg cells ([2]; muscle and spleen of Dmd^mdx rats and spleen of WT rats, week 12): maintained
muscle strength (grip test) in treated Dmd^mdx rats compared with WT littermate controls [3]: levels identical to those of WT
muscle strength (grip test) in treated vs. untreated Dmd^mdx rats [3]: increased
